Source: US7785611B2, “Parenteral vaccine formulations and uses thereof” (ALK-Abello A/S, priority 2000, dated 2010)

How the values were obtained:
[1] = system: TT-specific antibodies of the IgG class; set-up: species or system BALB/Ca mice; conditions: mouse, in vivo, sc
Protocol: (§1) Tetanus toxoid (TT) containing 3.0 mg protein/ml, (obtained from Statens Serum Institut, DK-2300 Copenhagen S, Denmark).
(§2) Prepared from Mg(OH)2 gel (Reheis, USA). • Magnesium carbonate hydroxide pentahydrate, (MgCO3)4Mg(OH)25H2O, 0.05 M Mg^2+. […] Preparation of the Vaccine Formulations: […]
(§3) TT was dissolved or diluted to a concentration 10 times that of the concentration in the final vaccine formulation. The adjuvant was dissolved or diluted to a concentration five times that of the concentration in the final vaccine formulation, with regard to the cation. 1 volume TT solution was slowly mixed with 2 volumes adjuvant, and left stirring over night at 4° C. The following day 7 volumes Coca 0.0 buffer (0.25% sodium hydrogen carbonate and 0.5% sodium chloride) was slowly added. The adjuvant free vaccine was prepared as above, with the modification that the adjuvant was substituted with Coca 0.0 buffer. […]
(§4) Blood samples were drawn from the retro orbital vein every 7 days, starting on day 0. Serum was separated from the blood sample, and stored at −20° C., until analysed.
(§5) Serum samples were analysed for the presence of TT-specific immune response by means of a direct enzyme linked immunosorbent assay (ELISA), measuring TT-specific antibodies of the IgG class. […]
(§6) Bound antibodies were detected by serial incubations of the plate with a biotinylated, polyclonal antiserum to mouse IgG (obtained from Jackson Laboratories, Bar Harbour, Me., USA) followed by a streptavidine-horseradish peroxidase conjugate (obtained from DAKO A/S, Glostrup, Denmark). The plates were developed for 20 minutes with 100 μl readymade TMB substrate (Kem-En-Tech, Denmark) per well, and the reaction as stopped with an equal volume of 1M H2SO4.
(§7) The developed colour reaction was measured as absorption at 450 nm. […]
(§8) The strength of the TT-specific antibody response in each serum sample was measured as an arbitrary titre, determined as the serum dilution giving an absorption signal equal to 50% of that obtained with a 3000 fold dilution of the TT-specific monoclonal antibody. […]

[2] = system: TT-specific antibodies of the IgG class; set-up: species or system BALB/Ca mice; conditions: mouse, in vivo
Protocol: as §1, §2, §3, §4, §5, §6, §7, §8

[3] = current use as antacid, laxative, topical or cosmetic; cited from earlier work
[4] = magnesium hydroxide alone; cited from earlier work

Compound	potency at inducing TT-specific antibodies compared with vaccine formulation containing Al(OH)3 [1]	onset of specific immune response compared with Al(OH)3 formulation [2]	Dose (recommended maximum dose) [3]	adsorbent activity [4]
[Mg+2].[OH-].[OH-] [magnesium hydroxide, Magnesium hydroxide]	more potent	earlier onset	0.5 g per kg bodyweight	low
Magnesium carbonate hydroxide pentahydrate [magnesium carbonate pentahydrate]	more potent	earlier onset	0.5 g per kg bodyweight	
Titanium dioxide	more potent	earlier onset	1.0 g per kg bodyweight	
